# Data taken from patent US20120101163A1, “COMPOSITION FOR INHIBITING CANCER METASTASIS” (TAIPEI MEDICAL UNIVERSITY, priority 2010, published 2012).
# pIC50: −log10 of the molar value.
# What was measured:
# [1] = molecular target: T1, matrix metalloproteinase-2 (Homo sapiens, UniProt P08253); assay: Extracellular inhibition test on enzyme activity of secreted MMP-2 in cultured medium; assay type: biochemical; conditions: cultured medium of PMA induced HT 1080, different concentrations, 24 hours
# T1 construct: matrix metalloproteinase-2 and matrix metalloproteinase-9 were secreted from the PMA induced HT 1080; endogenous in cells; host or cells: HT 1080 cells induced with 100 nM PMA
# T1 sequence (P08253 110-660): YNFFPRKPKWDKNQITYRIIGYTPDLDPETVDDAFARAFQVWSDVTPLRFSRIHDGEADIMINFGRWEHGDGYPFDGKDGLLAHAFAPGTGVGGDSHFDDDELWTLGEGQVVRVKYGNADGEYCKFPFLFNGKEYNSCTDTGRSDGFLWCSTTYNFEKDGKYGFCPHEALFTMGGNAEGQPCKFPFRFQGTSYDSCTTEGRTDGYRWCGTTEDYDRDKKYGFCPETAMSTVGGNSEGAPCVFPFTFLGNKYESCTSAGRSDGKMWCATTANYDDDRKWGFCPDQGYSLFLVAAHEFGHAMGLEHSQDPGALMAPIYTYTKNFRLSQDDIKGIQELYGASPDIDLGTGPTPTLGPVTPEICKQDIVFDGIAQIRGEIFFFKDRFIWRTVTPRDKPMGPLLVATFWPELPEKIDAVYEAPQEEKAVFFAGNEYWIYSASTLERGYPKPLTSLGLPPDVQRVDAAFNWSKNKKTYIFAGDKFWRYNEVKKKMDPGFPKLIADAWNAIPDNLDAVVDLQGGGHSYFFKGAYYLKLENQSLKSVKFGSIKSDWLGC
# Description: HT 1080 cells with appropriate cell numbers were cultured in 60 mm culturing plates for 12 hours, respectively. After the cells were attached onto the bottom of the plate and formed a monolayer, the medium in the plate was removed. Fresh serum free mediums with different concentrations of a test sample were added to the plates, respectively, and 100 nM PMA was added to each plate to induce the cells to express great quantities of matrix metalloproteinase-2 and matrix metalloproteinase-9, and the plates were placed in a temperature of 37° C. for 24 hours. After centrifugation, each cultured supernatant were saved and mixed with SDS-sample buffer under the same protein contents which were then injected into a 10% SDS-polyacrylamide gel (containing 1 mg/ml gelatin) and then electrophoresed. After the electrophoresis was completed, the gel was taken out and washed with 20 mM Tris-HCl containing 25% isopropanol three times; 10 minutes per time. […]
# HT 1080 cells were induced with PMA, and the cultured medium for culturing the HT 1080 cells therefrom was taken out and treated with the different concentrations of L-Glutamic acid γ-hydroxamate (DH) for 24 hours, respectively. After that the enzyme activities of the matrix metalloproteinase-2 and matrix metalloproteinase-9 in the medium were analyzed. […]
# HT 1080 cells [2] = assay: Wound healing assay and colony dispersion assay (cell migration); assay type: cell-based, Human
# Description: 8. Wound Healing Assay (Park et al., 2005; Hwang et al., 2006)
# Cells with appropriate cell numbers were cultured in a 24 well culturing plate for 12 hours. After the cells were attached to each bottom of each well of the plate and formed a monolayer, the medium in the well was removed. The middle of each bottom of each well having the monolayer thereon was scraped by a 200 μl tip to form a scratched line with a width of 1 mm. The cells in each well were washed with a PBS buffer twice, and fresh mediums with different concentrations of a test drug were added to the wells, respectively and cultured for 18 hours. After that, the upper medium in each well was removed. The cells were washed with a PBS buffer twice, fixed with 100% methanol and stained with a toluidine blue. The calculation for the migration rate of the cells was:
# 9. Colony Dispersion Assay (Hwang et al., 2006)
# Cells with appropriate cell numbers were cultured in a 24 well culturing plate for 12 hours. After the cells were attached to each bottom of each well of the plate and formed a monolayer, the medium in the well was removed. Fresh mediums with different concentrations of a test drug were added to the wells, respectively and cultured for 3 days. After that, the upper medium in each well was removed. Then, the cells were washed with a PBS buffer twice, fixed with 100% methanol and stained with a toluidine blue.
# HT 1080 cells [3] = assay: Cell adhesion assay (gelatin-coated plate); assay type: cell-based, Human
# Description: 11. Cell Adhesion Assay (Lee et al., 2005; Ouyang et al., 2005; Zhang et al., 2005)
# HT 1080 cells were used to prepare a cell suspension with an appropriate concentration by a fresh serum free medium, and the cell suspension was mixed with test drugs with different concentrations, respectively and then added to wells of a 24 well culturing plate pre-coated with gelatin, respectively. The 24 well culturing plates were placed in an incubator at 37° C. for 30 minutes. After that, the upper medium in each well was removed and the cells were washed with a PBS buffer twice, and then an MTT solution which was prepared with a medium was added to each well. After the 24 well culturing plates were placed in an incubator at 37° C. for reacting for 4-6 hours, an upper medium in each well was removed, and 100 μl of DMSO was added to each well to solubilize the formazan precipitates. After that, an ELISA reader was used to determine the absorbance at 600 nm for each well. The calculation for the adhesion rate of the cells was: […]
# [4] = about 0.1-3 mM, stated as embodiment
smiles,measurement,setting,value
"NC(CCC(=O)NO)C(=O)O [DH, L-Glutamic acid γ-hydroxamate]",direct inhibition of enzyme activity of secreted matrix metalloproteinase-2,[1],no inhibition
same,pIC50,"HT 1080 cells [2]; Homo sapiens, HT-1080, 0.4, 1.2, 2 and 2.8 mM, 18 hours",2.76
same,inhibition rate to cancer cell migration,HT 1080 cells [2]; [4],20-85%
same,number of HT 1080 cells attached (adhesion),"HT 1080 cells [3]; 0.4, 1.2, 2 and 2.8 mM, gelatin coated plate, 30 minutes",slight dose dependent decreasing trend
same,inhibition rate to cancer cell adhesion,HT 1080 cells [3]; [4],10-30%
